In patent EP4692090A1 (Shanghai Fosun Pharmaceutical (Group) Co., Ltd., priority 2023, dated 2024):
Where two headings read alike, the source gives them in different places.

Legend:
LoVo cells = assay: LoVo cell proliferation assay (CellTiter-Glo); type: cell-based; conditions: maximum concentration 10 µM, 9 concentrations
Procedure: Test Example 2: LoVo cell proliferation assay
LoVo (ATCC, #CRL-229) cells in logarithmic growth phase were digested, counted, and plated into 96-well cell culture plates at 2,000 cells per well. The plates containing cells were incubated overnight at 37°C in a 5% CO2 incubator, and then test compounds with 3-fold gradient dilutions (maximum concentration: 10 µM, 9 concentrations) were added. DMSO was used as a blank control. After the LoVo cells containing the compounds or DMSO were incubated for an additional 5 days, an equal volume of CellTiter-Glo reagent (Promega, #7573) was added. After incubation at room temperature for 30 minutes, chemiluminescence was read using an Envision 2105 (PerkinElmer). The cell proliferation inhibition rate (%) for wells treated with each concentration of the compounds was calculated using the following formula. Then, with compound concentration as the horizontal axis and cell proliferation inhibition rate (%) as the vertical axis, GraphPad software was used to plot the data and determine the IC50 values of the test compounds. The results are shown in Table 2, wherein the IC50 ranges are defined as follows: A: ≤ 100 nM; 1000 nM ≥ B > 100 nM; C > 1000 nM.
Cell proliferation inhibition (%) = (1 - luminescence value of compound-treated group / average luminescence value of DMSO blank control group) × 100. Table 2. Inhibitory effect of compounds on LoVo growth

ATR kinase = target: T1, ATR kinase (Homo sapiens, UniProt Q13535); assay: Inhibitory effect on ATR kinase activity (Caliper mobility shift, FAM-labeled RAD17 peptide substrate); type: biochemical; conditions: 1 nM ATR kinase (Eurofins), 28°C for 3 hours, maximum concentration 1 µM, 10 concentrations
T1 construct: purchased Eurofins 14-953
Procedure: Test Example 1: Inhibitory effect of the compounds of the present disclosure on ATR kinase activity
Test compounds to be tested were serially diluted with DMSO (maximum concentration 1 µM, 10 concentrations with 3-fold serial dilution) and added to the wells of a 384-well reaction plate (Corning, #4512). 1 nM ATR kinase (Eurofins, #14-953), 5 mM substrate (FAM-labeled RAD17 peptide, FAM-ASELPASQPQPFSAKKK), 5 mM ATP and the compounds with corresponding concentrations reacted in a kinase reaction solution (50 mM HEPES, pH 7.5; 0.0015% Brij-35; 10 mM MnCl2, total volume of 20 µL) at 28°C for 3 hours. The reaction was terminated by adding 30 µL of stop solution (100 mM HEPES, pH 7.5; 0.015% Brij-35; 0.2% Coating Reagent #3, PerkinElmer; 50 mM EDTA). The reaction plate was placed on a Caliper instrument (PerkinElmer) for testing. The relative inhibitory activity of each compound concentration group was calculated using the following formula: % Inhibition = (Conversion rate of the blank control group without compound added - Conversion rate of the test compound group) / (Conversion rate of the blank control group - […]). The IC50 values were calculated using GraphPad analysis and fitted. […] Table 1. Inhibitory effect (IC50) of compounds on ATR kinase activity.

[1] = LoVo cells, 2,000 cells per well, 5 days incubation, CellTiter-Glo, read-out: LoVo IC50
[2] = Homo sapiens, LoVo, 120 h, LoVo cells, 2,000 cells per well, 5 days incubation, CellTiter-Glo, read-out: LoVo IC50

T1 sequence (Q13535 whole entry): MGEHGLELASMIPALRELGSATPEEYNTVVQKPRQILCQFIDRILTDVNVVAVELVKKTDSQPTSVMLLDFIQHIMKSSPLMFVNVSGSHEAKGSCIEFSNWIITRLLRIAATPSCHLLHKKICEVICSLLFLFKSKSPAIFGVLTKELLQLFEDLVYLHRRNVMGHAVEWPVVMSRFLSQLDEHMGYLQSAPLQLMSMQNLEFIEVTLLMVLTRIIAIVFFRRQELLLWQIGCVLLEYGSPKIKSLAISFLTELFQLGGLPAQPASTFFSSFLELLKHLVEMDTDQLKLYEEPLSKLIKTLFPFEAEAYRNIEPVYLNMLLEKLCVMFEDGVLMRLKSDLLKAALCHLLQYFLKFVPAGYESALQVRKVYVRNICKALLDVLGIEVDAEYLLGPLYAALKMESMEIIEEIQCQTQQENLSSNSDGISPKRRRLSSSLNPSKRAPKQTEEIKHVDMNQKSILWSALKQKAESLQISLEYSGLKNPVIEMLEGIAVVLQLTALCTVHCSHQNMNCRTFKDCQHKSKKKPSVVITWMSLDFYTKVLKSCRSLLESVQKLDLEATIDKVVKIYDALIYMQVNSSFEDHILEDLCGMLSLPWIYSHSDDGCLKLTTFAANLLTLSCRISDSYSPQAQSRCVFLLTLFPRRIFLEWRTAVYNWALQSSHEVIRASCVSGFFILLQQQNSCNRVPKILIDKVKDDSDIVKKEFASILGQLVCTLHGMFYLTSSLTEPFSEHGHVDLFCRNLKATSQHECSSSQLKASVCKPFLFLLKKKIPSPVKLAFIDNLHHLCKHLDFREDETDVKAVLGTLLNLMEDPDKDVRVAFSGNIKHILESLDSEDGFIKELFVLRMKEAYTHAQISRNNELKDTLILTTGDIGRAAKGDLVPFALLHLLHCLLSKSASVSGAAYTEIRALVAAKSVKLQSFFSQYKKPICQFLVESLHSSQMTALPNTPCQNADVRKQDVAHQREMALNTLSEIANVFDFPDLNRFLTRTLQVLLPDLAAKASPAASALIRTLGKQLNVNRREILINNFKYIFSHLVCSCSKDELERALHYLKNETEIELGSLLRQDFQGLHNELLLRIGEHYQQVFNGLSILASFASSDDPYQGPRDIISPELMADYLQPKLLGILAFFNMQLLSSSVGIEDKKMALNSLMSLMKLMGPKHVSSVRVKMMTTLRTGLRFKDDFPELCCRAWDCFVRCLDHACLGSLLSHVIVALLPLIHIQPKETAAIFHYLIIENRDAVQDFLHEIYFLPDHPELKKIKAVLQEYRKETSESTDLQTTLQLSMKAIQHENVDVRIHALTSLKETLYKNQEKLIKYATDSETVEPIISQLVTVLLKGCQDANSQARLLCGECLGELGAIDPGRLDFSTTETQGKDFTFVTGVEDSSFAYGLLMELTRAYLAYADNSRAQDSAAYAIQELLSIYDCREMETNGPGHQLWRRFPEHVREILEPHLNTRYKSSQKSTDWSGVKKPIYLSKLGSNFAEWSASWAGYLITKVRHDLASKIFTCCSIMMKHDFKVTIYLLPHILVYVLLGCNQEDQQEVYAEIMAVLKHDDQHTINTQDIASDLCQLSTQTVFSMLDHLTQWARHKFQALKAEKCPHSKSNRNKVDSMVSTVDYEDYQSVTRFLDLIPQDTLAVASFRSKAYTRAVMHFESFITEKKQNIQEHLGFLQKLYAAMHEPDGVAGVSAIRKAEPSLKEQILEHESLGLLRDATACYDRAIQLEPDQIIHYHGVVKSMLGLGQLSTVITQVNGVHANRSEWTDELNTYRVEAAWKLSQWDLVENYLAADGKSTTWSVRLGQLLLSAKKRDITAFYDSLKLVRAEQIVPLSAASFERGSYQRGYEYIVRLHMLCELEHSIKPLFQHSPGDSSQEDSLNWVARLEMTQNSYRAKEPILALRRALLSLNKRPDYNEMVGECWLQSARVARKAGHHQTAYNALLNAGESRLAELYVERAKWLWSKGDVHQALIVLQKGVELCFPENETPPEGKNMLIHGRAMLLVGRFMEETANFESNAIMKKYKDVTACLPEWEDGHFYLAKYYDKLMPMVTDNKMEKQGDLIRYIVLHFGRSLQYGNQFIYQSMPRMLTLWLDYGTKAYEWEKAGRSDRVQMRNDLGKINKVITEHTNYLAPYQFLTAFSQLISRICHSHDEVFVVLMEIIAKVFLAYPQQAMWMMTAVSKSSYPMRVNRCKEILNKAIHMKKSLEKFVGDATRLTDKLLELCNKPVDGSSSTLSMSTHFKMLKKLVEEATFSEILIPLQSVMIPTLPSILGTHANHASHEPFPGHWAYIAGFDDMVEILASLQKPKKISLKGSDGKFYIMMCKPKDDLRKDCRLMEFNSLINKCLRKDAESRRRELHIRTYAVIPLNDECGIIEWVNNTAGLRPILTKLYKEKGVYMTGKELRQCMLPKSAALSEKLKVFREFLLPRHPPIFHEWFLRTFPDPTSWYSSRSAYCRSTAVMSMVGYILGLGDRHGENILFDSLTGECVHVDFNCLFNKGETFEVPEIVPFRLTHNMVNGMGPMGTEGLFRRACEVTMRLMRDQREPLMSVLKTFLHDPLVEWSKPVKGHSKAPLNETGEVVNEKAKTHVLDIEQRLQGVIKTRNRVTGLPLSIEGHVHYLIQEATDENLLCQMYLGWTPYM
T1 sequence (Q8WXE1 whole entry partner): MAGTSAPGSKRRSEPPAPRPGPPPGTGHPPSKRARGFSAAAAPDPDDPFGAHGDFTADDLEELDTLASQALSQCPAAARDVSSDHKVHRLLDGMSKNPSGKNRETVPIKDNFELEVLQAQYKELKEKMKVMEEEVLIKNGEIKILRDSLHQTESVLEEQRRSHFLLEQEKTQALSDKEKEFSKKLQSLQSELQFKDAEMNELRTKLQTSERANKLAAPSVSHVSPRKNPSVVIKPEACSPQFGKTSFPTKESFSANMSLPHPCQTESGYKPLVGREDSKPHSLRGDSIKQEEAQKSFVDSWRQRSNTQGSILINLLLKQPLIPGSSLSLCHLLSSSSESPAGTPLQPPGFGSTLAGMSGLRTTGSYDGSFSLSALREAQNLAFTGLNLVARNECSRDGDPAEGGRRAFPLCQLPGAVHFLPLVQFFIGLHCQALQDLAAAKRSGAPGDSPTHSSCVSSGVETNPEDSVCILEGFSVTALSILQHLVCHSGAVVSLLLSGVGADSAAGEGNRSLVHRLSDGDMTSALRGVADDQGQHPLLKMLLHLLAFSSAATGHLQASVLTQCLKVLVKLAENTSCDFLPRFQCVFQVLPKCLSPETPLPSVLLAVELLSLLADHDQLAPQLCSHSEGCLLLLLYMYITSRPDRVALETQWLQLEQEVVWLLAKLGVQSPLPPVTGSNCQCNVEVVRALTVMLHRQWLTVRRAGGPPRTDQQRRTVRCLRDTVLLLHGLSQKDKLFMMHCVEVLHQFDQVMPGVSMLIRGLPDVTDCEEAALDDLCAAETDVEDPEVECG

IC50 (LoVo cells; [1]) | IC50 (ATR kinase; read-out: ATR kinase IC50) | IC50 (LoVo cells; [2]) | Structure (SMILES) | IC50 (LoVo cells; Homo sapiens, LoVo, 120 h, read-out: LoVo IC50 (nM), LoVo cells, 2,000 cells per well, 5 days incubation, CellTiter-Glo) | IC50 (ATR kinase; ATR kinase IC50 (nM))
< 100 nM | < 10 nM | – | C[C@@H]1COCCN1c1cc2c3c(nn(-c4cc[nH]n4)c3n1)CCN(S(C)(=O)=O)C2C1CC1 (single isomer, unassigned) [Compound 138B] | – | –
– | < 10 nM | < 100 nM | CC(C)C1c2cc(N3CCOC[C@H]3C)nc3c2c(nn3-c2cc[nH]n2)CCN1C (single isomer, unassigned) [Compound 141A] | – | –
< 100 nM | < 10 nM | – | CC(C)C1c2cc(N3CCOC[C@H]3C)nc3c2c(nn3-c2cc[nH]n2)CCN1C (single isomer, unassigned) [Compound 141B] | – | –
– | < 10 nM | < 100 nM | C[C@@H]1COCCN1c1cc2c3c(nn(-c4cc[nH]n4)c3n1)CCN(C)C2C1CC1 (single isomer, unassigned) [Compound 142A] | – | –
< 100 nM | < 10 nM | – | C[C@@H]1COCCN1c1cc2c3c(nn(-c4cc[nH]n4)c3n1)CCN(C)C2C1CC1 (single isomer, unassigned) [Compound 142B] | – | –
– | < 10 nM | 100 to 1000 nM | CCC1c2cc(N3CCOC[C@H]3C)nc3c2c(nn3-c2cc[nH]n2)CCN1S(C)(=O)=O (single isomer, unassigned) [Compound 144A] | – | –
< 100 nM | < 10 nM | – | CCC1c2cc(N3CCOC[C@H]3C)nc3c2c(nn3-c2cc[nH]n2)CCN1S(C)(=O)=O (single isomer, unassigned) [Compound 144B] | – | –
– | 10 to 100 nM | 100 to 1000 nM | CCC1c2cc(N3CCOC[C@H]3C)nc3c2c(nn3-c2cc[nH]n2)CCN1S(=O)(=O)C1CC1 (single isomer, unassigned) [Compound 145A] | – | –
100 to 1000 nM | < 10 nM | – | CCC1c2cc(N3CCOC[C@H]3C)nc3c2c(nn3-c2cc[nH]n2)CCN1S(=O)(=O)C1CC1 (single isomer, unassigned) [Compound 145B] | – | –
– | < 10 nM | < 100 nM | CC1c2cc(N3CCOC[C@H]3C)nc3c2c(nn3-c2cc[nH]n2)CCN1S(=O)(=O)C1CC1F (single isomer, unassigned) [Compound 151A] | – | –
< 100 nM | < 10 nM | – | CC1c2cc(N3CCOC[C@H]3C)nc3c2c(nn3-c2cc[nH]n2)CCN1S(=O)(=O)C1CC1F (single isomer, unassigned) [Compound 151B] | – | –
100 to 1000 nM | 10 to 100 nM | – | CC1c2cc(N3CCOC[C@H]3C)nc3c2c(nn3-c2cc[nH]n2)CCN1S(=O)(=O)C1CC1F (single isomer, unassigned) [Compound 151C] | – | –
100 to 1000 nM | 100 to 1000 nM | – | CC1c2cc(N3CCOC[C@H]3C)nc3c2c(nn3-c2cc[nH]n2)CCN1S(=O)(=O)C1CC1F (single isomer, unassigned) [Compound 151D] | – | –
– | < 10 nM | < 100 nM | CN=S(C)(=O)N1CCc2nn(-c3cc[nH]n3)c3nc(N4CCOC[C@H]4C)cc(c23)C1C (single isomer, unassigned) [Compound 152A] | – | –
100 to 1000 nM | 10 to 100 nM | – | CN=S(C)(=O)N1CCc2nn(-c3cc[nH]n3)c3nc(N4CCOC[C@H]4C)cc(c23)C1C (single isomer, unassigned) [Compound 152B] | – | –
– | – | – | C[C@@H]1COCCN1c1cc2c3c(nn(-c4cc[nH]n4)c3n1)CCNC2 [Compound 1, (R)-4-(2-(1H-pyrazol-3-yl)-6,7,8,9-tetrahydro-2H-1,2,3,7-tetraazabenzo[cd]azulen-4-yl)-3-methylmorpholine] | 100 to 1000 nM | 100 to 1000 nM
– | 10 to 100 nM | 100 to 1000 nM | CC(C)N1CCc2nn(-c3cc[nH]n3)c3nc(N4CCOC[C@H]4C)cc(c23)C1 [Compound 2] | – | –
– | 10 to 100 nM | 100 to 1000 nM | C[C@@H]1COCCN1c1cc2c3c(nn(-c4cc[nH]n4)c3n1)CCN(C1CCOCC1)C2 [Compound 3, (R)-4-(2-(1H-pyrazol-3-yl)-7-(tetrahydro-2H-pyran-4-yl)-6,7,8,9-tetrahydro-2H-1,2,3,7-tetraazabenzo[cd]azulen-4-yl)-3-methylmorpholine] | – | –
– | 10 to 100 nM | 100 to 1000 nM | C[C@@H]1COCCN1c1cc2c3c(nn(-c4cc[nH]n4)c3n1)CCN(C1CCOC1)C2 (stereo partly drawn) [Compound 4, (3R)-4-(2-(1H-pyrazol-3-yl)-7-(tetrahydrofuran-3-yl)-6,7,8,9-tetrahydro-2H-1,2,3,7-tetraazabenzo[cd]azulen-4-yl)-3-methylmorpholine] | – | –
– | 10 to 100 nM | 100 to 1000 nM | CC(=O)N1CCc2nn(-c3cc[nH]n3)c3nc(N4CCOC[C@H]4C)cc(c23)C1 [Compound 5] | – | –
– | 100 to 1000 nM | 100 to 1000 nM | C[C@@H]1COCCN1c1cc2c3c(nn(-c4cc[nH]n4)c3n1)CCN(C1CC3CCC(C1)O3)C2 (stereo partly drawn) [Compound 6, (3R)-4-(7-(8-oxabicyclo[3.2.1]octan-3-yl)-2-(1H-pyrazol-3-yl)-6,7,8,9-tetrahydro-2H-1,2,3,7-tetraazabenzo[cd]azulen-4-yl)-3-methylmorpholine] | – | –
– | 10 to 100 nM | 100 to 1000 nM | C[C@@H]1COCCN1c1cc2c3c(nn(-c4cc[nH]n4)c3n1)CCN(C1CC(F)(F)C1)C2 [Compound 7, (R)-4-(7-(3,3-difluorocyclobutyl)-2-(1H-pyrazol-3-yl)-6,7,8,9-tetrahydro-2H-1,2,3,7-tetraazabenzo[cd]azulen-4-yl)-3-methylmorpholine] | – | –
– | 10 to 100 nM | 100 to 1000 nM | C[C@@H]1COCCN1c1cc2c3c(nn(-c4cc[nH]n4)c3n1)CCN(C1COC1)C2 [Compound 8, (R)-3-Methyl-4-(7-(oxetan-3-yl)-2-(1H-pyrazol-3-yl)-6,7,8,9-tetrahydro-2H-1,2,3,7-tetraazabenzo[cd]azulen-4-yl)morpholine] | – | –
– | 10 to 100 nM | > 1000 nM | C[C@@H]1COCCN1c1cc2c3c(nn(-c4cc[nH]n4)c3n1)CCN(C(=O)C1CC(F)(F)C1)C2 [Compound 9, (R)-(3,3-difluorocyclobutyl)(4-(3-methylmorpholino)-2-(1H-pyrazol-3-yl)-2,6,8,9-tetrahydro-7H-1,2,3,7-tetraazabenzo[cd]azulene-7-yl)methanone] | – | –
– | 10 to 100 nM | > 1000 nM | C[C@@H]1COCCN1c1cc2c3c(nn(-c4cc[nH]n4)c3n1)CCN(C(=O)CC(F)(F)F)C2 [Compound 10, (R)-3,3,3-trifluoro-1-(4-(3-methylmorpholino)-2-(1H-pyrazol-3-yl)-2,6,8,9-tetrahydro-7H-1,2,3,7-tetraazabenzo[cd]azulen-7-yl)propan-1-one] | – | –
– | 10 to 100 nM | 100 to 1000 nM | C[C@@H]1COCCN1c1cc2c3c(nn(-c4cc[nH]n4)c3n1)CCN(C1CC3(CC3)C1)C2 [Compound 11] | – | –
– | 10 to 100 nM | 100 to 1000 nM | CC1COCC1N1CCc2nn(-c3cc[nH]n3)c3nc(N4CCOC[C@H]4C)cc(c23)C1 (stereo partly drawn) [Compound 12, (3R)-3-methyl-4-(7-(4-methyltetrahydrofuran-3-yl)-2-(1H-pyrazol-3-yl)-6,7,8,9-tetrahydro-2H-1 ,2,3,7-tetraazabenzo[cd]azulen-4-yl)morpholine] | – | –
– | 10 to 100 nM | 100 to 1000 nM | C[C@@H]1COCCN1c1cc2c3c(nn(-c4cc[nH]n4)c3n1)CCN(CC(F)(F)F)C2 [Compound 14, (R)-4-(2-(1H-pyrazol-3-yl)-7-(2,2,2-trifluoroethyl)-6,7,8,9-tetrahydro-2H-1,2,3,7-tetraazabenzo[cd]azulen-4-yl)-3-methylmorpholine] | – | –
